From PubChem BioAssay (NCI) come the findings set out here.

Holding throughout (test): growth of human tumour cells (NCI), 48 h
The subject of assay [1] is UACC-62 melanoma.
The subject of assay [2] is EKVX NSCLC.
Assay [3] concerns ACHN renal.
The subject of assay [4] is DU-145 prostate.
Assay [5] concerns OVCAR-8 ovarian.
The subject of assay [6] is COLO 205 colon.
Assay [7] relates to HCT-15 colon.
The test system of assay [8] is M14 melanoma.
Assay [9] relates to U251 CNS.
The subject of assay [10] is SW-620 colon.

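Results reflect a 48-hour exposure of cells in 96-well plates to compound at five concentrations. The concentration for full growth arrest is given as TGI.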

Take `Cc1cc(S(=O)(=O)Nc2n[nH]c(N)n2)c(Cl)cc1Cl`: the TGI in assay [1], in assay [2], in assay [3], in assay [4], in assay [5] and in assay [6] was greater than 10 µM throughout. The TGI in assay [7], in assay [8], in assay [9] and in assay [10] was greater than 10 µM in each case.

Turning to `O=C(/C=C(\C(=O)c1cccs1)c1cccs1)c1ccc(C(=O)/C=C(\C(=O)c2cccs2)c2cccs2)cc1`, the TGI in assay [1], in [2], in assay [3], in [4], in assay [5] and in assay [6] was greater than 100 µM throughout. Moreover, the TGI in assay [7], in assay [8], in assay [9] and in assay [10] was greater than 100 µM each time.

For `C(#CP(c1ccccc1)c1ccccc1)P(C#CP(c1ccccc1)c1ccccc1)c1ccccc1`, the TGI in assay [1], in assay [2], in assay [3], in [4], in assay [5] and in assay [6] was greater than 100 µM each time. In addition, the TGI in assay [7] is greater than 100 µM; in assay [8], 13 µM; in [9] it was greater than 100 µM; in [10], greater than 100 µM.

Regarding `COc1ccc(NCC(=O)Nn2c(-c3ccccc3)nc3ccccc3c2=O)cc1`, the TGI was 32.3 µM in [1]; greater than 100 µM in [2]; greater than 100 µM in [3]; greater than 100 µM in assay [4]; greater than 100 µM in assay [5]; greater than 100 µM in assay [6]. The TGI is greater than 100 µM in [7], greater than 100 µM in assay [8], 87.1 µM in assay [9] and 82.9 µM in assay [10].

`O=C1CSC(c2ccc(Cl)cc2Cl)N1c1ccc(Oc2ccc(Cl)cc2)c(Cl)c1` (stereo not given): the TGI is 53.5 µM in assay [1]; 74 µM in [2]; greater than 100 µM in assay [3]; greater than 100 µM in [4]; greater than 100 µM in assay [5]; 61 µM in assay [6]. For the same molecule, the TGI in assay [7] is 66.4 µM; in assay [8], greater than 100 µM; in assay [9] it was greater than 100 µM; in assay [10], greater than 100 µM.

As to `CCCCCCCCCCCCCCCCNc1ccn(C2CC(O)C(COC(c3ccccc3)(c3ccccc3)c3ccc(OC)cc3)O2)c(=O)n1` (stereo not given), the TGI in assay [1], in [2], in assay [3], in assay [4], in [5] and in assay [6] was greater than 100 µM in each case. The TGI in assay [7], in assay [8], in assay [9] and in assay [10] was greater than 100 µM in each case.

Consider `Cc1cccc(CC(Cc2ccc(C)cc2C(=O)O)C(=O)O)c1` (stereo not given), for which the TGI was 96.5 µM in assay [1]; greater than 100 µM in assay [2]; greater than 100 µM in assay [3]; greater than 100 µM in [4]; greater than 100 µM in assay [5]; greater than 100 µM in assay [6]. Besides, the TGI in assay [7], in [8], in assay [9] and in assay [10] was greater than 100 µM in each case.

Take `COc1ccccc1C1(c2c(OC)c(=O)c2=O)SCCCS1`: the TGI in [1], in assay [2], in assay [3], in [4], in assay [5] and in assay [6] was greater than 100 µM in each case. For the same molecule, the TGI in [7], in assay [8], in [9] and in assay [10] was greater than 100 µM in each case.

Regarding `COc1cc(OC)c2c(c1)OC(c1cccnc1)C(c1ccccc1)C2=O` (stereo not given), the TGI in assay [1], in [2], in assay [3], in [4], in assay [5] and in [6] was greater than 100 µM each time. For the same molecule, the TGI in assay [7], in assay [8], in assay [9] and in assay [10] was greater than 100 µM throughout.

Regarding `CC(C)(C)N/N=C(\C(=O)NC1=C(Cl)C(=O)c2ccccc2C1=O)C1C=CCS1(=O)=O` (stereo not given), the TGI in [1] is 9.17 µM; in assay [2] it was 30.2 µM; in assay [3], 55.3 µM; in assay [4], 23.2 µM; in assay [5], 72 µM; in assay [6], 30.2 µM. Besides, the TGI in [7] was 22.9 µM; in [8] it was 23.7 µM; in [9] it was greater than 100 µM; in assay [10], greater than 100 µM.

On to `COC(=O)c1cc(OC)c(OC)c(OC)c1-c1cc2c(cc1C=O)OCO2`, for which the TGI in assay [1], in [2], in [3], in [4], in [5] and in assay [6] was greater than 10 µM in each case. Moreover, the TGI in [7], in assay [8], in assay [9] and in [10] was greater than 10 µM throughout.

For the molecule `COc1cc2c(/C=C3/C(=O)N(C)c4ccc(O)cc43)c(Cl)[nH]c2cc1C`, the TGI in assay [1] came to 13.6 µM; in assay [2], 23.9 µM; in [3] it was 16.8 µM; in assay [4], 18.4 µM; in [5] it was 15 µM; in [6], 2.37 µM. For the same molecule, the TGI in assay [7] turned out to be 12.8 µM; in assay [8], 13.1 µM; in assay [9] it was 17.6 µM; in assay [10] it was 21.3 µM.

For `O=C(SCc1cccc2ccccc12)c1ccc(Cl)cc1`, the TGI in [1], in [2], in [3], in assay [4], in assay [5] and in [6] was greater than 100 µM in each case. Further, the TGI in assay [7], in assay [8], in [9] and in assay [10] was greater than 100 µM in each case.

In the case of `CC(=O)OC1[C@H](OC(C)=O)C2=C(C)[C@@H](OC(C)=O)C[C@@]2(C(C)(C)O)[C@@H](OC(C)=O)[C@H]2[C@@]1(C)[C@@H](OC(C)=O)CC(OC(C)=O)[C@]21CO1` (stereo not given in full), the TGI in [1], in [2], in assay [3], in assay [4], in [5] and in [6] was greater than 100 µM each time. For the same molecule, the TGI in [7], in assay [8], in assay [9] and in assay [10] was greater than 100 µM in each case.

In the case of `Cc1c2c(n(CC(c3ccccc3)c3ccccc3)c1C)NN=C(C#N)S2(=O)=O`, the TGI in assay [1], in assay [2], in assay [3], in assay [4], in assay [5] and in assay [6] was greater than 100 µM in each case. For the same molecule, the TGI in [7], in [8], in [9] and in assay [10] was greater than 100 µM each time.

Consider `O=C1CN(c2cccc(Cl)c2)C(=O)CN1NCNN1CC(=O)N(c2cccc(Cl)c2)CC1=O`, for which the TGI in assay [1], in [2], in assay [3], in assay [4], in assay [5] and in assay [6] was greater than 100 µM in each case. Moreover, the TGI in [7], in assay [8], in assay [9] and in assay [10] was greater than 100 µM in each case.

For `OC1(c2ccc(Cl)cc2)c2ccccc2-c2nc3ccccc3n21` (stereo not given), the TGI in [1], in assay [2], in assay [3], in assay [4], in assay [5] and in assay [6] was greater than 100 µM in each case. The TGI in assay [7], in [8], in assay [9] and in assay [10] was greater than 100 µM throughout.

On to `C[C@]12CC(c3ccccc3O1)C(C(=O)Nc1nc(C34CC5CC(CC(C5)C3)C4)cs1)C(=O)N2` (stereo not given in full), for which the TGI in assay [1], in [2], in assay [3], in assay [4], in assay [5] and in [6] was greater than 100 µM in each case. The TGI in assay [7], in [8], in [9] and in assay [10] was greater than 100 µM throughout.

With `Cc1nc2sc(C(=O)c3ccc(Cl)cc3)c(N)c2c(-c2ccccc2Cl)c1C(=O)Nc1ccccc1`, the TGI in assay [1] was found to be 29.6 µM; in [2], 59 µM; in assay [3], 67.7 µM; in assay [4] it was 61 µM; in [5] it was 47.1 µM; in assay [6], 37.4 µM. Moreover, the TGI is 43.5 µM in assay [7], 25.8 µM in assay [8], 37.4 µM in assay [9] and 29.4 µM in [10].

Turning to `COC1(CC[C@@H](C)COC2OC(CO)C(O)C(O)C2O)O[C@H]2C[C@H]3[C@@H]4CC=C5C[C@@H](OC6OC(CO)C(O)C(OC7OC(CO)C(O)C(O)C7O)C6OC6OC(C)C(O)C(O)C6O)CC[C@]5(C)[C@H]4CC[C@]3(C)[C@H]2[C@@H]1C` (stereo not given in full), the TGI in assay [1] is greater than 35.7 µM; in assay [2], 35.3 µM; in assay [3] it was 30.1 µM; in [4] it was 14.7 µM; in assay [5], 59.7 µM; in assay [6], greater than 37.5 µM. In addition, the TGI was 11.8 µM in [7], 5.41 µM in assay [8], 4.13 µM in [9] and 6.51 µM in [10].

Take `O=C(O)[C@H](CCC[C@H]1C(=O)O[C@H](c2ccccc2)[C@H](c2ccccc2)N1C(=O)OCc1ccccc1)N[C@@H](c1ccccc1)[C@H](O)c1ccccc1`: the TGI in assay [1] is 44.1 µM; in [2], greater than 100 µM; in assay [3] it was greater than 100 µM; in assay [4], greater than 100 µM; in [5], 45.7 µM; in assay [6], greater than 100 µM. For the same molecule, the TGI in assay [7] was greater than 100 µM; in [8] it was greater than 100 µM; in [9] it was 31.1 µM; in assay [10], 68.5 µM.

For `O=c1[nH]c(NCc2ccc(Cl)cc2)nc2nc[nH]c12`, the TGI in assay [1], in assay [2], in assay [3], in [4], in [5] and in assay [6] was greater than 100 µM in each case. For the same molecule, the TGI in assay [7], in [8], in assay [9] and in [10] was greater than 100 µM in each case.

With `CC(Oc1ccccc1)C(=O)NNC(=O)OC(C)(C)C` (stereo not given), the TGI in [1], in assay [2], in assay [3], in assay [4], in [5] and in [6] was greater than 100 µM throughout. Further, the TGI in [7], in assay [8], in [9] and in assay [10] was greater than 100 µM throughout.

For the molecule `CC(C)=CC(=O)c1[nH]c2ccccc2c1CC(=O)NCCc1cncn1C`, the TGI in [1] is greater than 100 µM; in assay [2] it was 83.4 µM; in assay [3], greater than 100 µM; in assay [4], greater than 100 µM; in assay [5], greater than 100 µM; in [6] it was 79.6 µM. Besides, the TGI in [7], in [8], in [9] and in assay [10] was greater than 100 µM each time.

For `Br[C@@H]1[C@H]2c3nc4ccccc4nc3[C@@H]1C[C@H]2Br`, the TGI in assay [1], in assay [2], in [3], in [4], in assay [5] and in [6] was greater than 100 µM in each case. Moreover, the TGI in [7], in assay [8], in assay [9] and in assay [10] was greater than 100 µM each time.
